The record followed here is ChEMBL document CHEMBL1152017, “Peptide-binding antibiotics: A solid-phase assay for screening libraries of vancomycin mimics for selective d-Ala-d-Ala binding” (Bioorg Med Chem Lett, 1997).

SMILES strings stand for the structures.

The test is described as follows: The compound was tested for binding constant against d-Ala-d-Ala termini on bacterial cell surface.

Turning to `C[C@@H](NC(=O)[C@@H](C)NC(=O)CNS(=O)(=O)c1cccc2c(N(C)C)cccc12)C(=O)O`, the KA stood at 1.3 mM⁻¹. To `C[C@H](NC(=O)[C@H](C)NC(=O)CNS(=O)(=O)c1cccc2c(N(C)C)cccc12)C(=O)O` belongs 1.1 mM⁻¹; to `C[C@H](NC(=O)CNS(=O)(=O)c1cccc2c(N(C)C)cccc12)C(=O)O[C@H](C)C(=O)O`, under 0.02 mM⁻¹. For the molecule `C[C@H](NC(=O)CNS(=O)(=O)c1cccc2c(N(C)C)cccc12)C(=O)N[C@H](C)C(=O)O`, the KA was found to be 16 mM⁻¹.
